The subject of one series is AML/MDS subjects. The experiment in a line: Clinical study CPDR001X2105, MBG453 single agent. It counts as in vivo, human. Particulars: 400 mg Q2W and 800 mg Q4W. As to the method:
(§1) The MBG453 single agent RD has been determined as 800 mg Q4W in solid tumor subjects primarily based on PK and PKPD modeling of target (TIM-3) occupancy. MBG453 at the dose level of 800 mg Q4W was predicted to give sustained target occupancy of 90% in tumor in >90% of subjects. […] MBG453 single agent is also being evaluated in AML/MDS subjects in the CPDR001X2105 study with Q4W and Q2W regimens.
The RD in AML/MDS has not yet been determined, however it is not expected to be different from solid tumors, based on preliminary PK and safety data.

For the next series, the system named is solid tumor subjects. The series can be described thus: Clinical study CMBG453X2101, MBG453 single agent. The conditions noted are these: any dose up to 1200 mg Q2W or Q4W. Type of series: in vivo, human. As to the method: as §1
The test system of series [1] is solid and hematological tumors. The conditions noted are these: versus original day 1 to day 7 regimen of a 28-day cycle; cited from earlier work.
Another series deals with p53. Particulars: preclinical cell and in vivo models; cited from earlier work.
Another series deals with R/R AML subjects. The experiment in a line: Clinical study CHDM201X2101, single agent HDM201. It counts as in vivo, human. As to the method:
HDM201 is a novel investigational agent with promising single-agent activity in AML patients. Study CHDM201X2101 investigated several dose regimens of single agent HDM201 in R/R AML subjects. CR/CRi rate of 24% was reported in subjects with R/R AML who received oral HDM201 at a dose of 45 mg from D1 to D7 every 4 weeks (Q4W) (Regimen 2C), which was the dose assessed as recommended dose for expansion (RDE).
The starting dose and regimen selection for HDM201 in dose escalation is based on the previous Phase I dose escalation and expansion study of HDM201 as a single-agent in subjects with R/R AML ([HDM201X2101]). In this Phase I study, HDM201 was investigated in subjects with solid tumors and hematological malignancies. A total of 27 subjects with hematological malignancies (26 AML and one acute lymphoblastic leukemia (ALL)) have been enrolled across various regimens. […] According to HDM201X2101, Regimen 2C was determined to be the recommended Phase 2 dose (RP2D) for further development of HDM201 as a single-agent.
With this regimen, the RD has been determined as 45 mg HDM201 in hematological tumors in the CHDM201X2101 study. […] Proceedings of the American Association for Cancer Research Annual Meeting 2017; 2017 Apr. 1-5; Washington, DC. Philadelphia (PA): AACR; Cancer Res 2017; 77(13 Suppl):Abstract nr CT154. doi:10.1158/1538-7445.AM2017-CT154).

The nature of series [2]: Population PK/PD model parameter estimates (NLME, Monolix) from the CHDM201X2101 dataset. More on the design: species or system human. Particulars: method=FIXED. An excerpt:
For model building the PK/PD dataset of CHDM201X2101 were used and an NLME estimation (Monolix 4.3.2) performed. The model structure and the parameter estimates are provided below. This provided inputs for R/shiny. The m/xR package were used for simulation of longitudinal data from the MLXTRAN model.

[3] abbreviates: R/R AML subjects, single agent HDM201.
The mark [4] stands for this setting: subjects treated at RDE (Regimen 2C: 45 mg D1 to D7 Q4W).

These results are taken from patent publication US20250041296A1, “NOVEL DOSING REGIMENS FOR MDM2 INHIBITORS” (NOVARTIS AG, priority 2018, published 2025).

Consider “MBG453: TIM-3 inhibitor MBG453 (Novartis), given by i.v. infusion”, for which the tolerability entry with AML/MDS subjects is recorded as “well tolerated”. Moreover, the safety signal result with solid tumor subjects is “No significant safety signal”.

Consider `COc1ncc(-c2nc3c(n2C(C)C)[C@H](c2ccc(Cl)cc2)N(c2cc(Cl)cn(C)c2=O)C3=O)c(OC)n1` [HDM201, (S)-5-(5-Chloro-1-methyl-2-oxo-1,2-dihydro-pyridin-3-yl)-6-(4-chloro-phenyl)-2-(2,4-dimethoxy-pyrimidin-5-yl)-1-isopropyl-5,6-dihydro-1H-pyrrolo[3,4-d]imidazol-4-one], for which the “anti-tumor activity when administration is shortened to 5 consecutive days” value in series [1] is recorded as “relevant anti-tumor activity”. The “effect on p53 function” value with p53 is listed as “restore p53 function”. In the series on R/R AML subjects (27 subjects with hematological malignancies across various regimens), the “most common grade 3/4 AE reported as suspected to study treatment” value was “thrombocytopenia, neutropenia, anemia and Tumor Lysis Syndrome (TLS)”. The molecule also yielded a CR/CRi rate in the series with R/R AML subjects (R/R AML subjects, oral 45 mg D1 to D7 Q4W (Regimen 2C)) of 24%. In the series with R/R AML subjects (setting [3]), the duration of responses entry is reported as “up to 152 days” and the “time at which response was seen” value is “within the first two cycles”. Moreover, in the series on R/R AML subjects (setting [4]), the “gastro-intestinal AEs, grade” value is “only low grade” and the “tumor lysis syndrome (TLS) Grade 3 or 4” value is “about 10%”. In series [2], the pop_Cl entry is “pop_Cl = 6.18 [method=FIXED],”, the pop_V entry was “pop_V = 119 [method=FIXED],” and the pop_ka entry is “pop_ka = 0.489 [method=FIXED],”.
